Test results reported in patent US20240252488A1 (KOREA RESEARCH INSTITUTE OF CHEMICAL TECHNOLOGY, priority 2020, published 2024).

Columns and labels:
[1] = target: T1, MLKL (Homo sapiens, UniProt Q8NB16); assay: MLKL degradation assay in HepG2 cell line (western blot); type: cell-based; design: endogenous in cells; host or cells: HepG2 or HaCaT; settings: cell line not given; for Degradation assay (Degradation %) 1 μM: compound 1 μM; for Degradation assay (Degradation %) 10 μM: compound 10 μM
T1 sequence (Q8NB16 1-471): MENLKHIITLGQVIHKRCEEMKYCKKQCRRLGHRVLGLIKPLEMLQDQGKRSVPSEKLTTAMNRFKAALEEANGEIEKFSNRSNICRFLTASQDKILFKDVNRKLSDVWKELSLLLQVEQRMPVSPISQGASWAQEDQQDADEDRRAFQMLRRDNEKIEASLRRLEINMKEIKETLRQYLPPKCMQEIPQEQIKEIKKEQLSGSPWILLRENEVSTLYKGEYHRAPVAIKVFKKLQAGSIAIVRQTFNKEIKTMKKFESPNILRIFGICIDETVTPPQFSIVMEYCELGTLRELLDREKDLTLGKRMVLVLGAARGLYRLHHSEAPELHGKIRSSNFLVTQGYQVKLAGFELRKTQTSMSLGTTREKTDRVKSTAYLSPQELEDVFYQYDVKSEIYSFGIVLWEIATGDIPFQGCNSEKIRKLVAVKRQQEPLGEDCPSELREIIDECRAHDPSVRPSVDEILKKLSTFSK
Summary of the method: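 Degradation is judged from MLKL band intensity on immunoblots of HepG2 lysates taken after 20-24 hours of compound at final 1 or 10 μM.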

[2] = target: T1, MLKL; assay: Measurement of binding affinity with MLKL receptor (competitive binding assay, Kd); design: made in house; host or cells: HEK 293 cell line (T7 phage in E. coli BL21-derived host is also described)
Summary of the method: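 Kd comes from a bead-based competition format: compound-dependent loss of DNA-tagged, HEK 293-expressed MLKL capture, measured as eluate kinase by qPCR. Final DMSO is 0.9%.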

[3] = tested on: FADD−/− Jurkat cells; assay: Necroptosis inhibition assay, TNF-α-induced necroptosis (CellTiter-Glo 2.0); type: cell-based, human; settings: TNF-α 15 ng/mL; for Necroptosis inhibition assay (Rescue %) 1 μM: compound 1 μM; for Necroptosis inhibition assay (Rescue %) 10 μM: compound 10 μM
Summary of the method: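 Tested at three fixed concentrations (0.1, 1, 10 μM final) with a 30-minute room-temperature preincubation ahead of 15 ng/mL TNF-α challenge lasting 20 to 24 hours. Inhibition rate and cytotoxicity derive from ATP luminescence.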

SMILES | Degradation assay (Degradation %) 1 μM [1] | Degradation assay (Degradation %) 10 μM [1] | Kd [2] | Necroptosis inhibition assay (Rescue %) 1 μM ([3]; FADD−/− Jurkat cells) | Necroptosis inhibition assay (Rescue %) 10 μM ([3]; FADD−/− Jurkat cells) | Necroptosis inhibition assay (Rescue %) 1 μM [3] | Necroptosis inhibition assay (Rescue %) 10 μM [3]
Nc1ncc(-c2cnn(C3CCN(C(=O)CCC4CCN(C(=O)C5CCN(c6ccc7nnn(C8CCC(=O)NC8=O)c(=O)c7c6)CC5)CC4)CC3)c2)nc1C(=O)O[C@@H](C(=O)Nc1ccc(F)cc1)c1ccccc1 (stereo partly drawn) [TDH-436, (R)-2-((4-fluorophenyl)amino)-2-oxo-1-phenylethyl 3-amino-6-(1-(1-(3-(1-(1-(3-(2,6-dioxopiperidin-3-yl)-4-oxo-3,4-dihydrobenzo[d][1,2,3]triazin-6-yl)piperidine-4-carbonyl)piperidin-4-yl)propanoyl)piperidin-4-yl)-1H-pyrazol-4-yl)pyrazine-2-carboxylate] | 85.98% | 71.25% | 3.1 nM | 41.81% | 21.38% |  | 
Nc1ncc(-c2cnn(C3CCN(CCOCCNC(=O)C4CN(c5cccc6c5C(=O)N(C5CCC(=O)NC5=O)C6=O)C4)CC3)c2)nc1C(=O)O[C@@H](C(=O)Nc1ccc(F)cc1)c1ccccc1 (stereo partly drawn) [TDH-126, (R)-2-((4-fluorophenyl)amino)-2-oxo-1-phenylethyl 3-amino-6-(1-(1-(2-(2-(1-(2-(2,6-dioxopiperidin-3-yl)-1,3-dioxoisoindolin-4-yl)azetidine-3-carboxamido)ethoxy)ethyl)piperidin-4-yl)-1H-pyrazol-4-yl)pyrazine-2-carboxylate] | 31.29% | 81.59% | 9.2 nM |  |  | 19.35% | 58.35%
Nc1ncc(-c2cnn(C3CCN(CC4CCN(C(=O)COc5ccc6nnn(C7CCC(=O)NC7=O)c(=O)c6c5)CC4)CC3)c2)nc1C(=O)O[C@@H](C(=O)Nc1ccc(F)cc1)c1ccccc1 (stereo partly drawn) [TDH-169, (R)-2-((4-fluorophenyl)amino)-2-oxo-1-phenylethyl 3-amino-6-(1-(1-((1-(2-((3-(2,6-dioxopiperidin-3-yl)-4-oxo-3,4-dihydrobenzo[d][1,2,3]triazin-6-yl)oxy)acetyl)piperidin-4-yl)methyl)piperidin-4-yl)-1H-pyrazol-4-yl)pyrazine-2-carboxylate] | 71.77% | 58.09% | 2 nM |  |  | 68.09% | 50.74%
Nc1ncc(-c2cnn(C3CCN(C(=O)CCC4CCN(c5cccc6c5C(=O)N(C5CCC(=O)NC5=O)C6=O)CC4)CC3)c2)nc1C(=O)O[C@@H](C(=O)Nc1ccc(F)cc1)c1ccccc1 (stereo partly drawn) [TDH-419, (R)-2-((4-fluorophenyl)amino)-2-oxo-1-phenylethyl 3-amino-6-(1-(1-(3-(1-(2-(2,6-dioxopiperidin-3-yl)-1,3-dioxoisoindolin-4-yl)piperidin-4-yl)propanoyl)piperidin-4-yl)-1H-pyrazol-4-yl)pyrazine-2-carboxylate] | 82.06% | 64.50% | 5.9 nM | 26.56% | 18.52% |  | 
Nc1ncc(-c2cnn(C3CCN(CCC4CCN(C(=O)COc5ccc6c(c5)C(=O)N(C5CCC(=O)NC5=O)C6=O)CC4)CC3)c2)nc1C(=O)O[C@@H](C(=O)Nc1ccc(F)cc1)c1ccccc1 (stereo partly drawn) [TDH-201, (R)-2-((4-fluorophenyl)amino)-2-oxo-1-phenylethyl 3-amino-6-(1-(1-(2-(1-(2-((2-(2,6-dioxopiperidin-3-yl)-1,3-dioxoisoindolin-5-yl)oxy)acetyl)piperidin-4-yl)ethyl)piperidin-4-yl)-1H-pyrazol-4-yl)pyrazine-2-carboxylate] | 85.96% | 82.98% | 1.3 nM |  |  | 91.53% | 62.79%
Nc1ncc(-c2cnn(C3CCN(C(=O)CC4CCN(c5cccc6c5C(=O)N(C5CCC(=O)NC5=O)C6=O)CC4)CC3)c2)nc1C(=O)O[C@@H](C(=O)Nc1ccc(F)cc1)c1ccccc1 (stereo partly drawn) [TDH-343, (R)-2-((4-fluorophenyl)amino)-2-oxo-1-phenylethyl 3-amino-6-(1-(1-(2-(1-(2-(2,6-dioxopiperidin-3-yl)-1,3-dioxoisoindolin-4-yl)piperidin-4-yl)acetyl)piperidin-4-yl)-1H-pyrazol-4-yl)pyrazine-2-carboxylate] | 31.43% | 43.78% | 11 nM |  |  | 12.75% | 14.42%
Nc1ncc(-c2cnn(C3CCN(CC4CN(C(=O)COc5ccc6c(c5)C(=O)N(C5CCC(=O)NC5=O)C6=O)CCO4)CC3)c2)nc1C(=O)O[C@@H](C(=O)Nc1ccc(F)cc1)c1ccccc1 (stereo partly drawn) [TDH-390, (R)-2-((4-fluorophenyl)amino)-2-oxo-1-phenylethyl 3-amino-6-(1-(1-((4-(2-((2-(2,6-dioxopiperidin-3-yl)-1,3-dioxoisoindolin-5-yl)oxy)acetyl)morpholin-2-yl)methyl)piperidin-4-yl)-1H-pyrazol-4-yl)pyrazine-2-carboxylate] | 80.07% | 93.00% | 2.6 nM |  |  | 46.50% | 36.13%
Nc1ncc(-c2cnn(C3CCN(CC4CCN(C(=O)CNc5cccc6c5C(=O)N(C5CCC(=O)NC5=O)C6=O)CC4)CC3)c2)nc1C(=O)O[C@@H](C(=O)Nc1ccc(F)cc1)c1ccccc1 (stereo partly drawn) [TDH-136, (R)-2-((4-fluorophenyl)amino)-2-oxo-1-phenylethyl 3-amino-6-(1-(1-((1-((2-(2,6-dioxopiperidin-3-yl)-1,3-dioxoisoindolin-4-yl)glycyl)piperidin-4-yl)methyl)piperidin-4-yl)-1H-pyrazol-4-yl)pyrazine-2-carboxylate] | 50.37% | 48.83% | 4.6 nM |  |  | 48.59% | 40.66%
Nc1ncc(-c2cnn(C3CCN(C[C@H]4CC[C@H](CNC(=O)C5CCN(c6ccc7c(c6)C(=O)N(C6CCC(=O)NC6=O)C7=O)CC5)CC4)CC3)c2)nc1C(=O)O[C@@H](C(=O)Nc1ccc(F)cc1)c1ccccc1 (stereo partly drawn) [TDH-350, (R)-2-((4-fluorophenyl)amino)-2-oxo-1-phenylethyl 3-amino-6-(1-(1-(((1r,4r)-4-((1-(2-(2,6-dioxopiperidin-3-yl)-1,3-dioxoisoindolin-5-yl)piperidine-4-carboxamido)methyl)cyclohexyl)methyl)piperidin-4-yl)-1H-pyrazol-4-yl)pyrazine-2-carboxylate] | 86.13% | 88.73% | 3.7 nM |  |  | 39.64% | 34.84%
